Laboratory results reported in paper PMC2904477 (Biochemistry, 2010).

Legend:
F408A CB1 receptor = F408A CB1 receptor (Homo sapiens, UniProt P21554, F408A); settings: [3H]CP55940 saturation binding
F412A CB1 receptor = F412A CB1 receptor (Homo sapiens, UniProt P21554, F412A); settings: [3H]CP55940 saturation binding
wild-type CB1 receptor [1] = target: T1, wild-type CB1 receptor (Homo sapiens, UniProt P21554); settings: [3H]CP55940 saturation binding, mean ± SEM
[2] = target: T2, L404A/F408A/F412A CB1 receptor (Homo sapiens, UniProt P21554, F408A/F412A/L404A); settings: [3H]CP55940 saturation binding, mean ± SEM
wild-type CB1 receptor [3] = target: T1, wild-type CB1 receptor; settings: CP55940 dose-response; wild-type receptor (reference)
L404F/F408L CB1 receptor = L404F/F408L CB1 receptor (Homo sapiens, UniProt P21554, F408L/L404F); settings: [3H]CP55940 saturation binding
L404A CB1 receptor = L404A CB1 receptor (Homo sapiens, UniProt P21554, L404A); settings: [3H]CP55940 saturation binding
[4] = target: T2, L404A/F408A/F412A CB1 receptor; settings: CP55940 dose-response, mean ± SEM
L404F/F412L CB1 receptor = L404F/F412L CB1 receptor (Homo sapiens, UniProt P21554, F412L/L404F); settings: [3H]CP55940 saturation binding
[5] = target: T3, K402Q/R405Q/R409Q CB1 receptor (Homo sapiens, UniProt P21554, K402Q/R405Q/R409Q); settings: CP55940 dose-response, mean ± SEM
[6] = target: T3, K402Q/R405Q/R409Q CB1 receptor; settings: [3H]CP55940 saturation binding, mean ± SEM

T1 sequence (P21554 whole entry): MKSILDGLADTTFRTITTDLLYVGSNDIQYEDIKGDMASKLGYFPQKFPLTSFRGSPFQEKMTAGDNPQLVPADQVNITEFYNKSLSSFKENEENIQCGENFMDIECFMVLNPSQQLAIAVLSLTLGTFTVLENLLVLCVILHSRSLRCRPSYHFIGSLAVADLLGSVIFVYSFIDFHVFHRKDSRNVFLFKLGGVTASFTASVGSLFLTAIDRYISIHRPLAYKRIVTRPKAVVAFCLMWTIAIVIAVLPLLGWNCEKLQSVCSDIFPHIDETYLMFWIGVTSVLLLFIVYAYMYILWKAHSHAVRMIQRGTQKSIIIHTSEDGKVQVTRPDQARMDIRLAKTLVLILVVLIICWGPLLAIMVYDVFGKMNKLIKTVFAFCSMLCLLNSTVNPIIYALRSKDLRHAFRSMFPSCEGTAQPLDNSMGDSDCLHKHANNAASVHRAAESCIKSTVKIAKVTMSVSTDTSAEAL
T3 sequence (P21554 whole entry K402Q/R405Q/R409Q): as the sequence (P21554 whole entry) above, with K402Q, R405Q, R409Q counted along it
T2 sequence (P21554 whole entry L404A/F408A/F412A): as the sequence (P21554 whole entry) above, with L404A, F408A, F412A counted along it
F408A CB1 receptor, sequence (P21554 whole entry F408A): as the sequence (P21554 whole entry) above, with F408A counted along it
L404F/F412L CB1 receptor, sequence (P21554 whole entry L404F/F412L): as the sequence (P21554 whole entry) above, with L404F, F412L counted along it
F412A CB1 receptor, sequence (P21554 whole entry F412A): as the sequence (P21554 whole entry) above, with F412A counted along it
L404A CB1 receptor, sequence (P21554 whole entry L404A): as the sequence (P21554 whole entry) above, with L404A counted along it
L404F/F408L CB1 receptor, sequence (P21554 whole entry L404F/F408L): as the sequence (P21554 whole entry) above, with L404F, F408L counted along it

Question: How did the Bmax (F408A CB1 receptor) turn out when `CCCCCCC(C)(C)c1ccc([C@@H]2C[C@H](O)CC[C@H]2CCCO)c(O)c1` [CP55940, (1R,3R,4R)-3-[2-hydroxy-4-(1,1-dimethylheptyl)phenyl]-4-(3-hydroxypropyl)cyclohexan-1-ol] was run?
Answer: Its Bmax is 4133 ± 105 fmol/mg.

Question: What about the Bmax (F412A CB1 receptor) of the same molecule?
Answer: The Bmax was 4062 ± 80 fmol/mg.

Question: And the Bmax (wild-type CB1 receptor [1])?
Answer: The Bmax was 3499 ± 129 fmol/mg.

Question: And the Bmax [2]?
Answer: The Bmax was 867 ± 80 fmol/mg.

Question: And the “GTPγS Emax” value (wild-type CB1 receptor [3])?
Answer: The value was 100.0 % WT.

Question: What about the Bmax (L404F/F408L CB1 receptor) of the same molecule?
Answer: Its Bmax is 4523 ± 239 fmol/mg.

Question: What about the Bmax (L404A CB1 receptor) of the same molecule?
Answer: The Bmax was 3158 ± 135 fmol/mg.

Question: And the “GTPγS Emax” value [4]?
Answer: Its value is 14.4 ± 1.9 % WT.

Question: And the Bmax (L404F/F412L CB1 receptor)?
Answer: Its Bmax is 4531 ± 177 fmol/mg.

Question: And the “GTPγS Emax” value [5]?
Answer: The value was 80.6 ± 2.0 % WT.

Question: What about the Bmax [6] of the same molecule?
Answer: The Bmax was 3118 ± 142 fmol/mg.
